Among the test systems are MOLT-4 leukemia; A498 renal; UACC-62 melanoma; SF-539 CNS; MALME-3M melanoma; SNB-19 CNS; MDA-MB-435; HOP-62 NSCLC; M14 melanoma; SNB-75 CNS.
What all share (experiment): inhibition of tumour cell growth, NCI panel, 48 h

Several values for one entry are separate records, joined by “and”; a condition that tells them apart may be missing. Identical values can stand only once.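 Grown in 96-well plates, cells were treated for 48 hours with each compound at five concentrations. Insufficient inhibition: endpoint recorded as highest concentration tested. GI50 marks 50% less growth. TGI: concentration producing complete growth inhibition.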

`COc1c(C)c(OC)c(C(=O)CC(C)C)c(OC)c1C`: the TGI in the test with MOLT-4 leukemia, with A498 renal, in the test with UACC-62 melanoma, in the test on SF-539 CNS, in the test on MALME-3M melanoma and in the test with SNB-19 CNS was greater than 100 µM throughout. For the same compound, the TGI with MDA-MB-435, with HOP-62 NSCLC and with M14 melanoma was greater than 100 µM each time.
Regarding `Cc1nc2ccccc2c(/C=C/c2ccccc2)c1C(=O)/C=C/c1ccc(C(F)(F)F)cc1`, the GI50 is 0.623 µM with MOLT-4 leukemia; 1.75 µM in the test on A498 renal; 1.48 µM in the test with UACC-62 melanoma; 1.44 µM in the test with SNB-75 CNS; 1.82 µM with SF-539 CNS; 1.71 µM with MALME-3M melanoma. Also, the figures for the GI50 in the test on SNB-19 CNS, in the test on MDA-MB-435 and in the test on M14 melanoma were 1.65 µM, 1.86 µM and 1.6 µM, respectively. In addition, the TGI is greater than 100 µM with MOLT-4 leukemia; 3.18 µM in the test with A498 renal; 2.93 µM in the test with UACC-62 melanoma; 2.82 µM with SNB-75 CNS; 3.27 µM in the test on SF-539 CNS; 3.18 µM with MALME-3M melanoma. In addition, the TGI with SNB-19 CNS was 3.05 µM; with MDA-MB-435 it was 3.55 µM; in the test on M14 melanoma, 3.94 µM.
For the compound `COc1ccc2nc3c(cc2c1)C(=O)CC(c1ccccc1)C3` (stereo not given), the GI50 in the test on MOLT-4 leukemia is 0.364 µM; in the test with A498 renal it was 0.215 µM; with UACC-62 melanoma, 0.601 µM; with SNB-75 CNS, 0.181 µM; in the test with SF-539 CNS it was 1.22 µM; with MALME-3M melanoma, 0.432 µM. Besides, the figures for the GI50 in the test on SNB-19 CNS, in the test on MDA-MB-435 and with HOP-62 NSCLC were 2.94 µM, 0.137 µM and 2.75 µM, respectively. Moreover, the TGI with MOLT-4 leukemia was greater than 100 µM; in the test on A498 renal it was 1.18 µM; in the test on UACC-62 melanoma it was greater than 100 µM; with SNB-75 CNS, greater than 100 µM; in the test on SF-539 CNS, 5.15 µM; in the test with MALME-3M melanoma it was greater than 100 µM. Further, the TGI is greater than 100 µM in the test on SNB-19 CNS, 0.38 µM with MDA-MB-435 and greater than 100 µM in the test with HOP-62 NSCLC.
With `COc1ccc2c(c1)C(=O)c1c-2c(N2CCN(C(=O)CCNCCNCCN)CC2)nc2ccccc12`, the GI50 with MOLT-4 leukemia is 1 µM; with A498 renal, 16.9 µM; in the test on UACC-62 melanoma it was 22.3 µM; in the test with SNB-75 CNS it was 27.8 µM; in the test with MALME-3M melanoma, 2.78 µM; in the test with SNB-19 CNS, 15 µM. Besides, the values for the GI50 in the test on MDA-MB-435, in the test with HOP-62 NSCLC and with M14 melanoma were 6.86 µM, 2.93 µM and 2.03 µM, respectively. The TGI in the test with MOLT-4 leukemia was found to be 2.18 µM; in the test with A498 renal, 33.7 µM; in the test with UACC-62 melanoma, 55.3 µM; in the test on SNB-75 CNS it was 51.6 µM; in the test on MALME-3M melanoma, 6.9 µM; in the test with SNB-19 CNS, 39.8 µM. The results for the TGI in the test on MDA-MB-435, in the test with HOP-62 NSCLC and with M14 melanoma were 30 µM, 7.51 µM and 3.83 µM, respectively.
On to `CN(/N=C/c1ccccc1O)c1ccc2ccccc2n1`, for which the TGI was 62.6 µM in the test on MOLT-4 leukemia; 38.8 µM in the test with A498 renal; greater than 100 µM with UACC-62 melanoma; 37.1 µM with SF-539 CNS; 47.8 µM in the test on MALME-3M melanoma; 30.3 µM with SNB-19 CNS. Further, the TGI was greater than 100 µM in the test with MDA-MB-435, 29.9 µM in the test with HOP-62 NSCLC and greater than 100 µM with M14 melanoma.
As for `O=C(Nc1cccc(C(F)(F)F)c1)c1ccc(NC2=C(Cl)C(=O)N(Cc3ccccc3)C2=O)cc1`, the GI50 with MOLT-4 leukemia is 1.27 µM; in the test with A498 renal, 24.4 µM; with UACC-62 melanoma it was 12.9 µM; in the test on SNB-75 CNS, 23.1 µM; with SF-539 CNS, 14.9 µM; in the test on SNB-19 CNS, 20.4 µM. The GI50 was 6.92 µM in the test with MDA-MB-435, 13.1 µM in the test with HOP-62 NSCLC and 9.26 µM with M14 melanoma. Moreover, the TGI in the test on MOLT-4 leukemia amounted to 10.3 µM; in the test with A498 renal it was 45.7 µM; with UACC-62 melanoma, 25.5 µM; with SNB-75 CNS it was 51.4 µM; with SF-539 CNS it was 34.1 µM; with SNB-19 CNS it was 40.5 µM. The figures for the TGI in the test on MDA-MB-435, in the test with HOP-62 NSCLC and in the test with M14 melanoma were 20.5 µM, 25.8 µM and 21.7 µM, respectively.
On to `CCOC(=O)c1c(-c2ccc(OC)c(O)c2)c(C#N)c(=S)n(C2OC(COC(C)=O)C(OC(C)=O)C(OC(C)=O)C2OC(C)=O)c1-c1ccccc1` (stereo not given), for which the GI50 in the test on MOLT-4 leukemia is 38.3 µM and > 100 µM; in the test on UACC-62 melanoma it was 17.1 µM and > 100 µM; with MDA-MB-435, 31.7 µM and 67.9 µM; with HOP-62 NSCLC, 26.5 µM and > 100 µM; in the test with M14 melanoma, 18.9 µM and > 100 µM. The TGI with MOLT-4 leukemia is greater than 100 µM; in the test with A498 renal it was greater than 100 µM; with UACC-62 melanoma, 34.1 µM and > 100 µM; in the test on MALME-3M melanoma, 57 µM; in the test with SNB-19 CNS, greater than 100 µM; in the test on MDA-MB-435, 91.6 µM and > 100 µM. Moreover, the TGI was 72.2 µM and > 100 µM in the test on HOP-62 NSCLC; 40.6 µM and > 100 µM in the test with M14 melanoma.
For `O=C(c1ccc2ccccc2c1)c1c(C(F)(F)F)n([O-])c2cc(C(F)(F)F)ccc2[n+]1=O`, the GI50 was 1.49 µM in the test with MOLT-4 leukemia; 1.55 µM with UACC-62 melanoma; 1.73 µM in the test with SNB-75 CNS; 1.71 µM in the test with SF-539 CNS; 1.67 µM in the test on MALME-3M melanoma; 1.88 µM in the test with SNB-19 CNS. Moreover, the GI50 was 1.71 µM with MDA-MB-435, 1.92 µM with HOP-62 NSCLC and 1.65 µM in the test with M14 melanoma. Moreover, the TGI in the test on MOLT-4 leukemia came out at 3.9 µM; in the test with UACC-62 melanoma, 3.06 µM; with SNB-75 CNS it was 3.13 µM; in the test with SF-539 CNS it was 3.23 µM; with MALME-3M melanoma, 3.36 µM; in the test on SNB-19 CNS, 3.43 µM. The TGI in the test with MDA-MB-435 was found to be 3.31 µM; in the test on HOP-62 NSCLC, 3.72 µM; in the test on M14 melanoma, 3.1 µM.
Take `O=C1c2cc3c(cc2-c2c1c1ccc(F)cc1c(=O)n2C[C@H](O)[C@H](O)[C@H](O)CO)OCO3`: the GI50 was 0.142 µM in the test with A498 renal; 0.04 µM with UACC-62 melanoma; 0.209 µM in the test with MALME-3M melanoma; 0.0927 µM in the test on SNB-19 CNS; 0.174 µM in the test with MDA-MB-435; 0.112 µM in the test with HOP-62 NSCLC. For the same compound, the GI50 in the test on M14 melanoma was 0.18 µM. Further, the TGI with A498 renal was 0.327 µM; in the test with UACC-62 melanoma it was 0.195 µM; in the test with MALME-3M melanoma, 0.831 µM; in the test with SNB-19 CNS, greater than 100 µM; in the test with MDA-MB-435, 0.409 µM; in the test on HOP-62 NSCLC it was 0.52 µM. The TGI in the test with M14 melanoma was found to be 4 µM.
